Activity calls are given as the source filed them. The rule behind the calls is not given here.
Assays:
Assay type in all cases: functional, cell-based
[1] = test system: U-937; assay: Induction of apoptosis in U937 cells assessed as caspase 3 cleavage at 3 uM by Western blot; details: Homo sapiens
[2] = test system: SK-MEL-1; assay: Antiproliferative activity against human SK-MEL1 cells by MTT assay
[3] = test system: HL-60; assay: Induction of apoptosis in HL60 cells assessed as PARP cleavage at 3 uM by Western blot; details: Homo sapiens
[4] = test system: HL-60; assay: Induction of apoptosis in HL60 cells assessed as morphological changes at 3 uM after 4 hrs by phase contrast microscopy; details: Homo sapiens
[5] = test system: U-937; assay: Induction of apoptosis in U937 cells assessed as DNA fragmentation at 3 uM after 4 hrs by gel electrophoresis; details: Homo sapiens
[6] = test system: HL-60; assay: Induction of apoptosis in HL60 cells assessed as chromatin condensation at 3 uM after 4 hrs by fluorescence microscopy; details: Homo sapiens
[7] = test system: U-937; assay: Antiproliferative activity against human U937 cells by MTT assay
[8] = test system: HL-60; assay: Induction of apoptosis in HL60 cells assessed as caspase 3 cleavage at 3 uM by Western blot; details: Homo sapiens
[9] = test system: HL-60; assay: Antiproliferative activity against HL60 cells by MTT assay; details: Homo sapiens
[10] = test system: HL-60; assay: Induction of apoptosis in HL60 cells assessed as cytochrome C release at 3 uM by Western blot; details: Homo sapiens
[11] = test system: HL-60; assay: Induction of apoptosis in HL60 cells assessed as DNA fragmentation at 3 uM after 4 hrs by gel electrophoresis; details: Homo sapiens

SMILES	Activity [1]	IC50 [2]	Activity [3]	Activity [4]	Activity [5]	Activity [6]	IC50 [7]	Activity [8]	IC50 [9]	Activity [10]	Activity [11]
C=C(Br)C(=O)Nc1ccc2oc(C(=O)NCCCCCCNc3nsc4nc5ccccc5n34)cc2c1	Active	8950 nM	Active	Active	Active	Active	740 nM	Active	1720 nM	Active	Active
C=C(Br)C(=O)Nc1ccc2[nH]c(C(=O)NCCCCCCNc3nsc4nc5ccccc5n34)cc2c1	Active	3020 nM	Active	Active	Active	Active	400 nM	Active	550 nM	Active	Active
C=C(Br)C(=O)Nc1ccc2c(c1)cc(C(=O)NCCCCCCNc1nsc3nc4ccccc4n13)n2C	Active	4500 nM	Active	Active	Active	Active	890 nM	Active	840 nM	Active	Active
C=C(Br)C(=O)Nc1ccc2[nH]c(C(=O)NCCCNc3nsc4nc5ccccc5n34)cc2c1	Active	2090 nM	Active	Active	Active	Active	240 nM	Active	290 nM	Active	Active
C=C(Br)C(=O)Nc1ccc2sc(C(=O)NCCCCCCNc3nsc4nc5ccccc5n34)cc2c1	Active	8040 nM	Active	Active	Active	Active	910 nM	Active	1240 nM	Active	Active
